Test results from patent publication US20250325534A1, “MICROBIOCIDAL TETRAHYDROISOQUINOLINE DERIVATIVES” (SYNGENTA CROP PROTECTION AG, priority 2021, published 2025).

Experiments:
Botryotinia fuckeliana = Botryotinia fuckeliana (Botrytis cinerea) / liquid culture (gray mould); format: cell-based; details: 72 h, growth inhibition photometrically 3-4 days after application, read-out: control of Botryotinia fuckeliana
Description: Example B2: Botryotinia Fuckeliana (Botrytis cinerea)/Liquid Culture (Gray Mould) Conidia of the fungus from cryogenic storage are directly mixed into a nutrient broth (Vogels broth). After placing a DMSO solution of test compound into a microtiter plate (96-well format), the nutrient broth containing the fungal spores is added. The test plates are incubated at 24° C. and the inhibition of growth is determined photometrically 3-4 days after application.

Glomerella lagenarium = Glomerella lagenarium (Colletotrichum lagenarium) / liquid culture (anthracnose); format: cell-based; details: Colletotrichum orbiculare, 72 h, photometrically 3-4 days after application, read-out: control of Glomerella lagenarium
How it was run: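 Conidia in potato dextrose broth added to test compound delivered as DMSO solution in microtiter plates; incubation at 24° C. Growth inhibition read photometrically 3-4 days after application.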

Phaeosphaeria nodorum = Phaeosphaeria nodorum (Septoria nodorum) / wheat / leaf disc preventative (glume blotch); format: in vivo; details: Parastagonospora nodorum, foliar, inoculated 2 days after application
Description: Example B9: Phaeosphaeria nodorum (Septoria nodorum)/Wheat/Leaf Disc Preventative (Glume Blotch) Wheat leaf segments cv. Kanzler are placed on agar in a multiwell plate (24-well format) and sprayed with the formulated test compound diluted in water. The leaf disks are inoculated with a spore suspension of the fungus 2 days after application. The inoculated test leaf disks are incubated at 20° C. and 75% relative humidity under a light regime of 12 h light/12 h darkness in a climate cabinet and the activity of a compound is assessed as percent disease control compared to untreated when an appropriate level of disease damage appears in untreated check leaf disks (5-7 days after application).

Monographella nivalis = Monographella nivalis (Microdochium nivale) / liquid culture (foot rot cereals); format: cell-based; details: 96 h, photometrically 4-5 days after application, read-out: control of Monographella nivalis
How it was run: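 Test compound, applied as a DMSO solution, was challenged with fungal spores suspended in potato dextrose broth; after 4-5 days at 24° C, photometric readout gave inhibition of growth.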

[1] = system: Mycosphaerella graminicola; experiment: Mycosphaerella graminicola (Septoria tritici) / liquid culture (Septoria blotch); format: cell-based; details: Zymoseptoria tritici, 96 h, photometrically 4-5 days after application, read-out: control of Mycosphaerella graminicola
How it was run: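 Growth inhibition measured by photometry 4-5 days post application, at 24° C incubation. Test compound supplied as DMSO solution; fungal conidia from cryostorage suspended directly in potato dextrose broth as inoculum.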

Alternaria solani = Alternaria solani / tomato / leaf disc (early blight); format: in vivo; details: foliar, inoculated 2 days after application, vs untreated control
Description: Example B1: Alternaria solani/Tomato/Leaf Disc (Early Blight) Tomato leaf disks cv. Baby are placed on agar in multiwell plates (24-well format) and sprayed with the formulated test compound diluted in water. The leaf disks are inoculated with a spore suspension of the fungus 2 days after application. The inoculated leaf disks are incubated at 23° C./21° C. (day/night) and 80% relative humidity under a light regime of 12 h/12 h (light/dark) in a climate cabinet and the activity of a compound is assessed as percent disease control compared to untreated when an appropriate level of disease damage appears on untreated check disk leaf disks (5-7 days after application).

Mycosphaerella arachidis = Mycosphaerella arachidis (Cercospora arachidicola) / liquid culture (early leaf spot); format: cell-based; details: 96 h, photometrically 4-5 days after application, read-out: control of Mycosphaerella arachidis
How it was run: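 Photometric growth inhibition, read 4-5 days post-application at 24 °C, of Cercospora arachidicola spores suspended in potato dextrose broth and exposed to test compound delivered from DMSO solution.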

Pyrenophora teres = Pyrenophora teres / barley / leaf disc preventative (net blotch); format: in vivo; details: foliar, inoculated 2 days after application
Description: Example B16: Pyrenophora teres/Barley/Leaf Disc Preventative (Net Blotch) Barley leaf segments cv. Hasso are placed on agar in a multiwell plate (24-well format) and sprayed with the formulated test compound diluted in water. The leaf segments are inoculated with a spore suspension of the fungus 2 days after application. The inoculated leaf segments are incubated at 20° C. and 65% relative humidity under a light regime of 12 h light/12 h darkness in a climate cabinet and the activity of a compound is assessed as disease control compared to untreated when an appropriate level of disease damage appears in untreated check leaf segments (5-7 days after application).

Cn1cc([C@]2(C)CN(C(=O)c3cc(-c4ccc(F)cc4F)on3)Cc3ccccc32)cn1 (single isomer, unassigned) [Compound P-49]
≥ 80%: inhibition of growth at 20 ppm (Botryotinia fuckeliana) | inhibition of growth at 20 ppm (Glomerella lagenarium) | pest or weed control at 200 ppm (Phaeosphaeria nodorum) | inhibition of growth at 20 ppm (Monographella nivalis) | inhibition of growth at 20 ppm [1]

Cn1cc(C2CN(C(=O)c3cc(-c4ccc(F)cc4F)on3)Cc3ccccc32)cn1 (single isomer, unassigned) [Compound P-142, [5-(2,4-difluorophenyl)isoxazol-3-yl]-[4-(1-methylpyrazol-4-yl)-3,4-dihydro-1H-isoquinolin-2-yl]methanone]
≥ 80%: pest or weed control at 200 ppm (Alternaria solani) | inhibition of growth at 20 ppm (Botryotinia fuckeliana) | inhibition of growth at 20 ppm (Glomerella lagenarium) | pest or weed control at 200 ppm (Phaeosphaeria nodorum) | inhibition of growth at 20 ppm (Monographella nivalis) | inhibition of growth at 20 ppm (Mycosphaerella arachidis) | inhibition of growth at 20 ppm [1]

CON=C(C)C1c2ccccc2C(c2cnn(C)c2)CN1C(=O)c1cc(-c2ccc(F)cc2F)on1 (centres unmarked) [Compound P-10, [5-(2,4-difluorophenyl)isoxazol-3-yl]-[1-(N-methoxy-C-methyl-carbonimidoyl)-4-(1-methylpyrazol-4-yl)-3,4-dihydro-1H-isoquinolin-2-yl]methanone]
≥ 80%: pest or weed control at 200 ppm (Alternaria solani) | inhibition of growth at 20 ppm (Glomerella lagenarium) | pest or weed control at 200 ppm (Phaeosphaeria nodorum) | inhibition of growth at 20 ppm [1]

CON=C(C)c1c(C2CN(C(=O)c3cc(-c4ccc(F)cc4F)on3)Cc3ccccc32)cnn1C (centres unmarked) [Compound P-13, [5-(2,4-difluorophenyl)isoxazol-3-yl]-[4-[5-(N-methoxy-C-methyl-carbonimidoyl)-1-methyl-pyrazol-4-yl]-3,4-dihydro-1H-isoquinolin-2-yl]methanone]
≥ 80%: pest or weed control at 200 ppm (Alternaria solani) | pest or weed control at 200 ppm (Phaeosphaeria nodorum) | inhibition of growth at 20 ppm (Monographella nivalis) | inhibition of growth at 20 ppm [1]

COc1ccc2c(c1)C(C)N(C(=O)c1cc(-c3ccc(F)cc3F)on1)CC2(C)c1cnn(C)c1 (centres unmarked) [Compound P-18, [5-(2,4-difluorophenyl)isoxazol-3-yl]-[7-methoxy-1,4-dimethyl-4-(1-methylpyrazol-4-yl)-1,3-dihydroisoquinolin-2-yl]methanone]
≥ 80%: pest or weed control at 200 ppm (Alternaria solani) | inhibition of growth at 20 ppm (Glomerella lagenarium) | inhibition of growth at 20 ppm (Monographella nivalis) | inhibition of growth at 20 ppm (Mycosphaerella arachidis) | pest or weed control at 200 ppm (Pyrenophora teres) | inhibition of growth at 20 ppm [1]

COc1ccc2c(c1)C(C)(c1cnn(C)c1)CN(C(=O)c1cc(-c3ccc(F)cc3F)on1)C2C (centres unmarked) [Compound P-40, [5-(2,4-difluorophenyl)isoxazol-3-yl]-[6-methoxy-1,4-dimethyl-4-(1-methylpyrazol-4-yl)-1,3-dihydroisoquinolin-2-yl]methanone]
≥ 80%: pest or weed control at 200 ppm (Phaeosphaeria nodorum) | inhibition of growth at 20 ppm (Monographella nivalis) | inhibition of growth at 20 ppm (Mycosphaerella arachidis) | inhibition of growth at 20 ppm [1]

COc1cc(F)ccc1-c1cc(C(=O)N2Cc3ccccc3C(c3cnn(C)c3C)C2)no1 (centres unmarked) [Compound P-46, [4-(1,5-dimethylpyrazol-4-yl)-3,4-dihydro-1H-isoquinolin-2-yl]-[5-(4-fluoro-2-methoxy-phenyl)isoxazol-3-yl]methanone]
≥ 80%: pest or weed control at 200 ppm (Alternaria solani) | pest or weed control at 200 ppm (Phaeosphaeria nodorum) | inhibition of growth at 20 ppm (Monographella nivalis) | inhibition of growth at 20 ppm (Mycosphaerella arachidis) | inhibition of growth at 20 ppm [1]

Cn1cc(C2CN(C(=O)c3nnc(-c4ccccc4F)o3)Cc3ccccc32)cn1 (centres unmarked) [Compound P-54, [5-(2-fluorophenyl)-1,3,4-oxadiazol-2-yl]-[4-(1-methylpyrazol-4-yl)-3,4-dihydro-1H-isoquinolin-2-yl]methanone]
≥ 80%: pest or weed control at 200 ppm (Pyrenophora teres) | inhibition of growth at 20 ppm [1]

Cn1cc(C2CN(C(=O)c3cc(-c4ccc(F)cc4F)on3)Cc3ccc(C#N)cc32)cn1 (centres unmarked) [Compound P-62, 2-[5-(2,4-difluorophenyl)isoxazole-3-carbonyl]-4-(1-methylpyrazol-4-yl)-3,4-dihydro-1H-isoquinoline-6-carbonitrile]
≥ 80%: inhibition of growth at 20 ppm (Glomerella lagenarium) | pest or weed control at 200 ppm (Phaeosphaeria nodorum) | inhibition of growth at 20 ppm (Monographella nivalis) | inhibition of growth at 20 ppm [1]

Cc1nn(C)c(C)c1C1CN(C(=O)c2cc(-c3ccc(F)cc3F)on2)Cc2ccccc21 (centres unmarked) [Compound P-126, [5-(2,4-difluorophenyl)isoxazol-3-yl]-[4-(1,3,5-trimethylpyrazol-4-yl)-3,4-dihydro-1H-isoquinolin-2-yl]methanone]
≥ 80%: pest or weed control at 200 ppm (Alternaria solani) | inhibition of growth at 20 ppm (Glomerella lagenarium) | inhibition of growth at 20 ppm (Monographella nivalis) | inhibition of growth at 20 ppm (Mycosphaerella arachidis) | pest or weed control at 200 ppm (Pyrenophora teres) | inhibition of growth at 20 ppm [1]

Cn1cc(C2CN(C(=O)c3cc(-c4ccccc4)no3)Cc3ccccc32)cn1 (centres unmarked) [Compound P-158, [4-(1-methylpyrazol-4-yl)-3,4-dihydro-1H-isoquinolin-2-yl]-(3-phenylisoxazol-5-yl)methanone]
≥ 80%: pest or weed control at 200 ppm (Alternaria solani) | inhibition of growth at 20 ppm (Botryotinia fuckeliana) | inhibition of growth at 20 ppm (Glomerella lagenarium) | inhibition of growth at 20 ppm (Monographella nivalis) | inhibition of growth at 20 ppm (Mycosphaerella arachidis) | inhibition of growth at 20 ppm [1]

Cc1ccc(-c2cc(C(=O)N3Cc4ccccc4C(c4cnn(C)c4)C3)no2)cc1 (centres unmarked) [Compound P-204, [4-(1-methylpyrazol-4-yl)-3,4-dihydro-1H-isoquinolin-2-yl]-[5-(p-tolyl)isoxazol-3-yl]methanone]
≥ 80%: pest or weed control at 200 ppm (Phaeosphaeria nodorum) | inhibition of growth at 20 ppm [1]

Cn1cc([C@@]2(C)CN(C(=O)c3nnc(-c4ccc(F)cc4F)s3)Cc3ccccc32)cn1 [Compound P-209, [5-(2,4-difluorophenyl)-1,3,4-thiadiazol-2-yl]-[(4S)-4-methyl-4-(1-methylpyrazol-4-yl)-1,3-dihydroisoquinolin-2-yl]methanone]
≥ 80%: inhibition of growth at 20 ppm (Botryotinia fuckeliana) | inhibition of growth at 20 ppm (Glomerella lagenarium) | inhibition of growth at 20 ppm (Monographella nivalis) | inhibition of growth at 20 ppm (Mycosphaerella arachidis) | inhibition of growth at 20 ppm [1]

CC1c2ccc(Br)cc2C(C)(c2cnn(C)c2)CN1C(=O)c1cc(-c2ccc(F)cc2F)on1 (centres unmarked) [Compound P-215, [6-bromo-1,4-dimethyl-4-(1-methylpyrazol-4-yl)-1,3-dihydroisoquinolin-2-yl]-[5-(2,4-difluorophenyl)isoxazol-3-yl]methanone]
≥ 80%: inhibition of growth at 20 ppm (Botryotinia fuckeliana) | inhibition of growth at 20 ppm (Glomerella lagenarium) | inhibition of growth at 20 ppm (Monographella nivalis) | inhibition of growth at 20 ppm (Mycosphaerella arachidis) | inhibition of growth at 20 ppm [1]

CCC1(c2cnn(C)c2)CN(C(=O)c2cc(-c3ccc(F)cc3F)on2)Cc2ccccc21 (centres unmarked) [Compound P-221, [5-(2,4-difluorophenyl)isoxazol-3-yl]-[4-ethyl-4-(1-methylpyrazol-4-yl)-1,3-dihydroisoquinolin-2-yl]methanone]
≥ 80%: pest or weed control at 200 ppm (Phaeosphaeria nodorum) | inhibition of growth at 20 ppm (Mycosphaerella arachidis) | inhibition of growth at 20 ppm [1]
